Experimental data: article PMC1373645, “Lactate production yield from engineered yeasts is dependent from the host background, the lactate dehydrogenase source and the lactate export” (Microbial Cell Factories, 2006)

Target: T1, bovine Ldh-A (BtLDH) (Bos taurus, UniProt P19858)
T1 construct: gene LDHA; full length, untagged, expressed in S. cerevisiae GRF18U; crude cell extract; homotetramer
Assay: LDH activity of crude yeast extract with added lactate (Sigma kit DG1340-UV)
Type: biochemical
Conditions: read-out: % inhibition at 10 g/l

Compound: C[C@H](O)C(=O)O [lactate]
- inhibition at 10000 µg/mL: ~40%
